Assay results: the supplement of paper PMC5908809

Experiments:
KAI3 (IL-2 2.5 ng/mL) [1] = test: percent inhibition of viability; higher = more inhibition; conditions: 72 h
IMC-1 (IL-2 20 ng/mL) [2] = test: as above; conditions: 72 h
NKL (IL-2 2.5 ng/mL) [3] = test: as above; conditions: 72 h
DERL-7 (IL-2 2.5 ng/mL) [4] = test: as above; conditions: 72 h
[5] = test system: normal primary NK cells, pool 1 (3 donors), resting (IL-2 0 ng/mL); test: as above; conditions: 72 h
NK-92 (IL-2 2.5 ng/mL) [6] = test: as above; conditions: 72 h
NK-YS (IL-2 2.5 ng/mL) [7] = test: as above; conditions: 72 h
KHYG-1 (IL-2 2.5 ng/mL) [8] = test: as above; conditions: 72 h
SNK-6 (IL-2 2.5 ng/mL) [9] = test: as above; conditions: 72 h
[10] = test system: normal primary NK cells, pool 3 (3 donors) (IL-2 2.5 ng/mL); test: as above; conditions: 72 h
YT (IL-2 2.5 ng/mL) [11] = test: as above; conditions: 72 h
[12] = test system: normal primary NK cells, pool 2 (3 donors) (IL-2 2.5 ng/mL); test: as above; conditions: 72 h
[13] = test system: normal primary NK cells, pool 1 (3 donors) (IL-2 2.5 ng/mL); test: as above; conditions: 72 h
KAI3 (IL-2 2.5 ng/mL) [14] = test: drug sensitivity score (DSS) (DSS units); higher = more sensitive; extreme values may be limits of the assay; conditions: 72 h
IMC-1 (IL-2 20 ng/mL) [15] = test: as above; conditions: 72 h
NKL (IL-2 2.5 ng/mL) [16] = test: as above; conditions: 72 h
DERL-7 (IL-2 2.5 ng/mL) [17] = test: as above; conditions: 72 h
[18] = test system: normal primary NK cells, pool 1 (3 donors), resting (IL-2 0 ng/mL); test: as above; conditions: 72 h
NK-92 (IL-2 2.5 ng/mL) [19] = test: as above; conditions: 72 h
NK-YS (IL-2 2.5 ng/mL) [20] = test: as above; conditions: 72 h
KHYG-1 (IL-2 2.5 ng/mL) [21] = test: as above; conditions: 72 h
SNK-6 (IL-2 2.5 ng/mL) [22] = test: as above; conditions: 72 h
[23] = test system: normal primary NK cells, pool 3 (3 donors) (IL-2 2.5 ng/mL); test: as above; conditions: 72 h
YT (IL-2 2.5 ng/mL) [24] = test: as above; conditions: 72 h
[25] = test system: normal primary NK cells, pool 2 (3 donors) (IL-2 2.5 ng/mL); test: as above; conditions: 72 h
[26] = test system: normal primary NK cells, pool 1 (3 donors) (IL-2 2.5 ng/mL); test: as above; conditions: 72 h
[27] = test system: normal NK cells expanded with K562-aAPC; test: percent inhibition of viability; higher = more inhibition; conditions: 72 h, IL-2 2.5 ng/mL
Description: (§1)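 Drug sensitivity and resistance testing on K562-aAPC-expanded normal NK cells: 5 concentrations (10-fold steps over a 10,000-fold range), 72 h at 37 °C, viability by CellTiter-Glo normalised to DMSO and benzethonium chloride controls; DSS from the fitted curve.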

[28] = test system: normal NK cells expanded with K562-aAPC; test: drug sensitivity score (DSS) (DSS units); higher = more sensitive; extreme values may be limits of the assay; conditions: 72 h; IL-2 2.5 ng/mL
Description: as §1

Cc1ccc(NC(=O)c2ccc(CN3CCN(C)CC3)cc2)cc1Nc1nccc(-c2cccnc2)n1 [Imatinib] (max concentration tested 10000 nM)
percent inhibition of viability [%]
Conditions | 1 nM | 10 nM | 100 nM | 1000 nM | 10000 nM
DERL-7 (IL-2 2.5 ng/mL) [4] | 0.4 | -1.51 | 5.95 | 10.5 | 87.7
IMC-1 (IL-2 20 ng/mL) [2] | -6.61 | -9.38 | 0.61 | -5.6 | 101
KAI3 (IL-2 2.5 ng/mL) [1] | -2.16 | -7.49 | -4.01 | -0.85 | 74.1
KHYG-1 (IL-2 2.5 ng/mL) [8] | -2.34 | -9.57 | -7.02 | 0.18 | 101
NK-92 (IL-2 2.5 ng/mL) [6] | -3.36 | 0.75 | -2.9 | 7.24 | 63.5
NK-YS (IL-2 2.5 ng/mL) [7] | 0.66 | -5.53 | -1.76 | 2.33 | 70.3
NKL (IL-2 2.5 ng/mL) [3] | -12.3 | -12.6 | -18.4 | -6.32 | 71.4
SNK-6 (IL-2 2.5 ng/mL) [9] | -9.34 | -11 | -25.2 | -21.8 | 56.1
YT (IL-2 2.5 ng/mL) [11] | -0.33 | -5.36 | 0.48 | 5.22 | 96.3
[5] | -3.96 | -13.2 | 7.28 | 11.9 | 79
[10] | -7.45 | -5.71 | -0.28 | 8.35 | 31.7
[12] | -11.8 | -13 | 3.62 | 7.57 | 37.4
[13] | -6.14 | -4.91 | 10.5 | 15.8 | 64.8
[27] | -6.85 | -3.28 | -7.18 | 1.24 | 91.6

Conditions | drug sensitivity score
DERL-7 (IL-2 2.5 ng/mL) [17] | 6.62
IMC-1 (IL-2 20 ng/mL) [15] | 5.24
KAI3 (IL-2 2.5 ng/mL) [14] | 4.02
KHYG-1 (IL-2 2.5 ng/mL) [21] | 5.74
NK-92 (IL-2 2.5 ng/mL) [19] | 4.67
NK-YS (IL-2 2.5 ng/mL) [20] | 4.18
NKL (IL-2 2.5 ng/mL) [16] | 3.47
SNK-6 (IL-2 2.5 ng/mL) [22] | 2.14
YT (IL-2 2.5 ng/mL) [24] | 6.1
[18] | 6.38
[23] | 2.67
[25] | 3.04
[26] | 5.78
[28] | 5.26
